# Legend:
# [1] = rat, in vivo
# From the text: The contrast medium can also be intraarterially introduced into the vessel as in interventional angiography. To this end, a catheter is positioned in front of the outlet of the vascular section of interest. In the GS9L rat tumor model, the contrast medium concentration in the tumor was studied at a low flow rate for an intraarterial administration in 4 animals. To this end, the carotid artery was catheterized on day 10 after inoculation of the tumor cells, and a cannula was placed in the internal carotid artery (19). Via the latter, Isovist 300 was administered in a dosage of 2 g of iodine within 6 minutes. CT images of the rat head were made at the points in time 0, 1, 2, . . . 15 and 20 minutes after the beginning of the injection. For evaluation, the DynEva equipment software was used. The mean absorption in the tumor, adjacent healthy brain areas and in adjacent skin areas was determined for each point in time and converted into the corresponding iodine concentration. […] Relative to an intravenous administration, the plateau phase is extended to 60-120 seconds, and the drop in iodine concentration is slower. During the contrast medium administration phase, iodine accumulates analogously in the tumor and reaches a plateau after the end of the latter. […] In the healthy brain tissue, only very low iodine concentrations<0.5 mg/ml were observed.
# [2] = test system: glioblastoma (GS9L) rat tumor model; experiment: Contrast medium-enhanced CT radiation therapy, survival, glioblastoma (GS9L) rat tumor model; assay type: in vivo; conditions: 2 g of iodine/kg i.v. within 6 minutes before each of 6 sessions of 3 Gy, 140 kV, total 18 Gy; versus irradiation with common salt and untreated
# From the text: The therapeutic effectiveness of the contrast medium-enhanced radiation therapy was examined on a glioblastoma (GS9L) rat tumor model. To this end, male Fisher rats were inoculated stereotactically with 5 […]I of cell suspension (10^6 glioblastoma 9L cells) in the brain. After 8 days, the tumor growth was ensured by means of MRT, and the animals were divided into 3 groups (n=5). The animals of group 1 received no therapy and were used as a control. Animals of groups 2 and 3 passed through a CT radiation therapy with a total dose of 18 Gy at a tube voltage of 140 kV (Volume Zoom, Siemens Medical Solutions, Erlangen). Six therapy sessions were performed (2 per day at an interval of 4 hours), and one dose of 3 Gy was administered to the animals in each case. The radiation was limited to the tumor using the layer collimators and introduced within 90 s, which corresponds to a tumor-dose rate of 2 Gy/minute. Before each therapy session, a dimeric contrast medium (Isovist 300, Bayer Schering Pharma, Berlin) in a dose of 2 g of iodine/kg of body weight was administered to the animals of group 2. The latter was administered intravenously, within 6 minutes. With this application scheme, a maximum iodine-tumor concentration in a short plateau phase of between 6 and 7 minutes is achieved (FIG. 14). […]
# [3] = test system: glioblastoma (GS9L) rat tumor model; experiment: Contrast medium-enhanced radiation therapy compared with linear accelerator, glioblastoma (GS9L) rat tumor model; assay type: in vivo
# Description: For examination of the therapeutic effectiveness of the contrast medium-enhanced radiation therapy with a high dose rate, the latter was compared to the therapeutic standard, i.e., a radiation therapy on the linear accelerator. To this end, a glioblastoma (GS9L) rat tumor model was used. Male Fischer rats were stereotactially inoculated with 5 µl of cell suspension (10^6 glioblastoma 9L cells) in the brain. After 8 days, the to growth was ensured by means of MRT, and the animals were divided into 3 groups. The animals of group 1 (n=6) obtained no therapy and were used as a control. Animals of group 2 (n=5) were treated on the linear accelerator (Novalis, Brain Lab AG, Feldkirchen) at 2 MV with a total dose of 18 Gy. This dose was administered to 3 in fractions of 6 Gy each on days 9, 10 and 11 after inoculation. The animals of group 3 passed through a contrast medium-enhanced radiation therapy on days 9-11 with a total dose of 18 Gy and a tube voltage of 140 kV (Volume Zoom, Siemens Medical Solutions, Erlangen). Six therapy sessions were carried out (2 per day at 4-hour intervals) and in each case a dose of 3 Gy was administered to the animals within 90 seconds. This corresponds to a tumor-dose rate of 2 Gy/minute. […]
compound,measurement,setting,value
"CN(C(=O)CC(=O)N(C)c1c(I)c(C(=O)NC(CO)C(O)CO)c(I)c(C(=O)NC(CO)C(O)CO)c1I)c1c(I)c(C(=O)NC(CO)C(O)CO)c(I)c(C(=O)NC(CO)C(O)CO)c1I (stereo not shown) [Isovist 300, Iotrolan]",time of tumor iodine concentration maximum with plateau after the end of administration,[1],about 1 minute
same,survival after contrast medium-enhanced radiation therapy,[2],considerable therapeutic advantage
same,animals showing a significant therapy effect (survival time),"[3]; 2 g of iodine/kg i.v. within 6 minutes before each of 6 sessions of 3 Gy within 90 seconds, 140 kV, total 18 Gy",2 of 6
same,therapeutic result relative to standard therapy on the linear accelerator,"[3]; same total dose 18 Gy, linear accelerator 2 MV, 3 fractions of 6 Gy",therapeutic advantage

# From patent publication US20110200165A1, “CONTRAST AGENT-REINFORCED RADIOTHERAPY HAVING HIGH-OUTPUT TUBES” (BAYER SCHERING PHARMA AKTIENGESELLSCHAFT, priority 2008, published 2011)
